What all share (test): HTRF methyltransferase assay (SAM to SAH)
What all share (type): biochemical

Experiment [1] concerns the target T1, human glycine N-methyltransferase (hGNMT) (Homo sapiens, UniProt Q14749).
T1 construct: gene GNMT; commercial protein (MyBioSource); homotetramer by known biology
T1 sequence (Q14749 2-295): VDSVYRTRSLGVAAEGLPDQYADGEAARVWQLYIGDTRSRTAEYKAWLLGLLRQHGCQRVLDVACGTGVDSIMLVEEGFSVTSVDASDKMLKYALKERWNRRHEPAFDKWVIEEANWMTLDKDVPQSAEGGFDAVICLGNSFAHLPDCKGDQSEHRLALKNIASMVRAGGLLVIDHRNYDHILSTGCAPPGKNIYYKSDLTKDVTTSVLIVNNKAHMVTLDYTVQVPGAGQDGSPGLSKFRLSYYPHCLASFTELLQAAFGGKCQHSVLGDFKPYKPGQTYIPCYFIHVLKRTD
From the text:
HTRF methyltransferase assay (SAM to SAH) on human glycine N-methyltransferase (hGNMT)

Another experiment has as its target T2, nsp16/nsp10 (Severe acute respiratory syndrome coronavirus 2, UniProt P0DTD1).
T2 construct: gene rep
The following applies: read-out: SARS-CoV-2 / nsp16/nsp10, IC50. The source says: HTRF methyltransferase assay (SAM to SAH) on nsp16/nsp10

Experiment [2] addresses T3, SARS-CoV-2 nsp14 guanine-N7-methyltransferase (Severe acute respiratory syndrome coronavirus 2, UniProt P0DTD1).
T3 construct: gene rep
From the text: HTRF methyltransferase assay (SAM to SAH) on SARS-CoV-2 nsp14 guanine-N7-methyltransferase

Each structure is given as a SMILES string.

`Nc1ncnc2c1ncn2[C@@H]1O[C@H](CSCc2ccc(C(=O)O)cc2)[C@@H](O)[C@H]1O` [5a, 4-(((Adenosyl)thio)methyl)benzoic acid]: the IC50 is 400 ± 40 nM in experiment [1], 1450 ± 70 nM at nsp16/nsp10 and 500 ± 30 nM in experiment [2].
The like results for `CS(=O)(=O)Nc1cccc(CSC[C@H]2O[C@@H](n3cnc4c(N)ncnc43)[C@H](O)[C@@H]2O)c1` [5c, N-(3-(((Adenosyl)thio)methyl)phenyl)methanesulfonamide] were, in that order, 250 ± 20 nM, 480 ± 30 nM and 280 ± 20 nM.
`Nc1ncnc2c1ncn2[C@@H]1O[C@H](CSCc2cccc(CC(=O)O)c2)[C@@H](O)[C@H]1O` [5d, 2-(3-(((Adenosyl)thio)methyl)phenyl)acetic acid]: the IC50 in experiment [1] is 400 ± 30 nM; at nsp16/nsp10, 1840 ± 90 nM; in experiment [2] it was 680 ± 30 nM.
In turn, `Nc1ncnc2c1ncn2[C@@H]1O[C@H](CSCc2cccc(O)c2)[C@@H](O)[C@H]1O` [5e, 5′-(((3-Hydroxy)benzyl)thio)-5′-deoxyadenosine] returned an IC50 in experiment [1] of 600 ± 30 nM.
Take `Nc1ncnc2c1ncn2[C@@H]1O[C@H](CSCc2cccc(CO)c2)[C@@H](O)[C@H]1O` [5f, 5′-(((3-Hydroxymethyl)benzyl)thio)-5′-deoxyadenosine]: the results for the IC50 in experiment [1] and in experiment [2] were 1200 ± 100 nM and 740 ± 40 nM, respectively.
The like results for `N#Cc1cccc(CSC[C@H]2O[C@@H](n3cnc4c(N)ncnc43)[C@H](O)[C@@H]2O)c1` [5g, 3-(((Adenosyl)thio)methyl)benzonitrile] were, in that order, 724 ± 58 nM and 351 ± 28 nM.
The like results for `Nc1ncnc2c1ncn2[C@@H]1O[C@H](CSCc2cccc(-c3nn[nH]n3)c2)[C@@H](O)[C@H]1O` [5h, 5′-((3-(Tetrazolyl)benzyl)thio)-5′-deoxyadenosine] were, in that order, 220 ± 9 nM and 340 ± 12 nM.
With `CS(=O)(=O)c1cccc(CSC[C@H]2O[C@@H](n3cnc4c(N)ncnc43)[C@H](O)[C@@H]2O)c1` [5i, 5′-((3-(Methylsulfonyl)benzyl)thio)-5′-deoxyadenosine], the values for the IC50 in experiment [1] and in experiment [2] were 250 ± 20 nM and 270 ± 20 nM, respectively.
For `CNS(=O)(=O)c1cccc(CSC[C@H]2O[C@@H](n3cnc4c(N)ncnc43)[C@H](O)[C@@H]2O)c1` [5j, 3-(((Adenosyl)thio)methyl)-N-methylbenzenesulfonamide], in that order: 350 ± 17 nM and 400 ± 19 nM.
Regarding `COC(=O)c1cccc(CSC[C@H]2O[C@@H](n3cnc4c(N)ncnc43)[C@H](O)[C@@H]2O)c1` [5k, Methyl 3-(((adenosyl)thio)methyl)benzoate], the IC50 in experiment [1] came out at 870 ± 50 nM; in experiment [2], 1350 ± 70 nM.
On to `CNC(=O)c1cccc(CSC[C@H]2O[C@@H](n3cnc4c(N)ncnc43)[C@H](O)[C@@H]2O)c1` [5l, 3-(((Adenosyl)thio)methyl)-N-methylbenzamide], for which the IC50 in experiment [1] came out at 2780 ± 130 nM; in experiment [2], 2790 ± 140 nM.
The like results for `Nc1ncnc2c1ncn2[C@@H]1O[C@H](CSCc2ccc(Cl)c(C(=O)O)c2)[C@@H](O)[C@H]1O` [5m, 5-(((Adenosyl)thio)methyl)-2-chlorobenzoic acid] were, in that order, 6.6 ± 0.3 nM and 7.7 ± 0.4 nM.
The like results for `Nc1ncnc2c1ncn2[C@@H]1O[C@H](CSCc2ccc(F)c(C(=O)O)c2)[C@@H](O)[C@H]1O` [5n, 5-(((Adenosyl)thio)methyl)-2-fluorobenzoic acid] were, in that order, 6.1 ± 0.3 nM and 16 ± 2 nM.
On to `Nc1ncnc2c1ncn2[C@@H]1O[C@H](CSCc2cc(Cl)cc(C(=O)O)c2)[C@@H](O)[C@H]1O` [5o, 3-(((Adenosyl)thio)methyl)-5-chlorobenzoic acid], for which the IC50 in experiment [1] worked out at 15 ± 0.7 nM; in experiment [2] it was 24 ± 1.2 nM.
In the case of `Nc1ncnc2c1ncn2[C@@H]1O[C@H](CSCc2cc(C(=O)O)cc(-c3ccccc3)c2)[C@@H](O)[C@H]1O` [5p, 5-(((Adenosyl)thio)methyl)-[1,1′-biphenyl]-3-carboxylic acid], the IC50 is 0.97 ± 0.05 nM in experiment [1] and 0.58 ± 0.03 nM in experiment [2].
Take `Nc1ncnc2c1ncn2[C@@H]1O[C@H](CSCc2ccc(-c3ccccc3)c(C(=O)O)c2)[C@@H](O)[C@H]1O` [5r, 4-(((Adenosyl)thio)methyl)-[1,1′-biphenyl]-2-carboxylic acid]: the IC50 in experiment [1] was 10 ± 0.5 nM; in experiment [2] it was 36 ± 1.8 nM.
The like results for `Nc1ncnc2c1ncn2[C@@H]1O[C@H](CSCc2cc(C(=O)O)cc(-c3ccc(O)cc3)c2)[C@@H](O)[C@H]1O` [5t, 5-(((Adenosyl)thio)methyl)-4′-hydroxy-[1,1′-biphenyl]-3-carboxylic acid] were, in that order, 4.5 ± 0.2 nM and 4.2 ± 0.2 nM.
The like results for `Nc1ncnc2c1ncn2[C@@H]1O[C@H](CSCc2cc(C#CCO)cc(C(=O)O)c2)[C@@H](O)[C@H]1O` [5v, 3-(((Adenosyl)thio)methyl)-5-(3-hydroxyprop-1-yn-1-yl)benzoic acid] were, in that order, 9.8 ± 0.5 nM and 12 ± 0.6 nM.
Consider `Nc1ncnc2c1ncn2[C@@H]1O[C@H](CSc2ccc(Cl)c(C(=O)O)c2)[C@@H](O)[C@H]1O` [10a, 2-Chloro-5-((adenosyl)thio)benzoic acid], for which the IC50 in experiment [1] worked out at 13 ± 2 nM; on nsp16/nsp10 it was 30 ± 4 nM; in experiment [2], 20 ± 2 nM.
As for `Nc1ncnc2c1ncn2[C@@H]1O[C@H](CSc2cc(C(=O)O)ccc2Cl)[C@@H](O)[C@H]1O` [10b, 4-Chloro-5-((adenosyl)thio)benzoic acid], the values for the IC50 (in experiment [1]; at nsp16/nsp10; in experiment [2]) were 330 ± 20 nM, 2300 ± 120 nM and 1300 ± 60 nM, respectively.
For `Nc1ncnc2c1ncn2[C@@H]1O[C@H](CSc2ccc(Br)c(C(=O)O)c2)[C@@H](O)[C@H]1O` [10c, 2-Bromo-5-((adenosyl)thio)benzoic acid], the figures for the IC50 in experiment [1] and in experiment [2] were 8.2 ± 0.4 nM and 24 ± 2 nM, respectively.
The like results for `COc1ccc(SC[C@H]2O[C@@H](n3cnc4c(N)ncnc43)[C@H](O)[C@@H]2O)cc1C(=O)O` [10d, 2-Methoxy-5-((adenosyl)thio)benzoic acid] were, in that order, 13 ± 0.6 nM and 17 ± 0.9 nM.
With `Nc1ncnc2c1ncn2[C@@H]1O[C@H](CSc2ccc(-c3ccccc3)c(C(=O)O)c2)[C@@H](O)[C@H]1O` [10e, 4-((Adenosyl)thio)-[1,1′-biphenyl]-2-carboxylic acid], the IC50 was 24 ± 1 nM in experiment [1] and 25 ± 2 nM in experiment [2].
The like results for `Nc1ncnc2c1ncn2[C@@H]1O[C@H](CSc2ccc(C(=O)O)c(-c3ccccc3)c2)[C@@H](O)[C@H]1O` [10f, 5-((Adenosyl)thio)-[1,1′-biphenyl]-2-carboxylic acid] were, in that order, 210 ± 10 nM and 420 ± 19 nM.

The record behind these values is publication PMC9862586, “3-(Adenosylthio)benzoic Acid Derivatives as SARS-CoV-2 Nsp14 Methyltransferase Inhibitors” (Molecules, 2023).
